How the values were obtained:
[1] = tested on: cultured Plasmodium falciparum; test: growth inhibition of malaria parasites; assay type: cell-based; conditions: read-out: concentration at which growth of cultured Plasmodium falciparum was 50% inhibited
Description: An evaluation was conducted of growth inhibition of malaria parasites by a compound 9 derived by chemical conversion of cyclobutane compound 8 synthesized according to the present invention. As a result, the growth of cultured Plasmodium falciparum was 50% inhibited by a low concentration of 1 μM of compound 9. [drawing 60]

[2] = tested on: colon cancer cells (HCT116); test: anti-tumor effects, growth of colon cancer cells; assay type: cell-based; conditions: concentration 25 μg/mL
Description: An evaluation was conducted of the anti-tumor effects of a compound 11 derived by chemical conversion of cyclobutane compound 10 synthesized according to the present invention. As a result, the growth of colon cancer cells (HCT116) was inhibited by a low concentration of 25 μg/mL of compound 11. [drawing 61]

Work on `OC[C@H]1C2CCC[C@@]23CCC[C@@]13O` (some centres unmarked) [compound 9] yielded an IC50 [1] of 1000 nM.
For `CC(=O)OC12CCC1(C)C1CC(C)(C)CC2C=C1C` (centres unmarked) [compound 11], the “growth of colon cancer cells (HCT116)” value [2] was “inhibited”.
